Test results published in PubChem BioAssay AID1963828 (Molecular Pharmacology Branch, DTP, NCI, 2024).
“And” between values parts separate entries of the source, which are not always exact repeats. Equal entries are not always repeated.

Test system: 991263-137-R1-J2-PDC complex spheroid viability
Assay: Anticancer human tumor 991263-137-R1-J2-PDC patient-derived colon adenocarcinoma cell line growth inhibition [POLQ]
Conditions: for viability, T/C: stronger effect = lower value
Method: Multicellular complex tumor spheroid response to Polymerase (POL) inhibitors (novobiocin, ART-558, RP6685) in combination with a variety of drugs and investigational agents in selected tumor cell lines
The POL inhibitors (novobiocin, ART-558, and RP6685) were evaluated both individually and in combination with standard of care and investigational anticancer small molecules within a complex spheroid model of solid tumors. . Complex spheroids include a stromal component modeled by human endothelial cells (HUVEC) and fibroblasts modeled by human mesenchymal stem cells (MSCs). The concentration ranges selected for each drug and investigational agent were based upon clinically achievable concentrations if the clinical Cmax of the agent was known.
Compounds. The drugs and investigational agents: novobiocin (NSC847541), ART-558 (NSC835418), RP-6685 (NSC848927), peposertib (NSC802822), ceralasertib (NSC780249), elimusertib (NSC800525), camonsertib (NSC841442), AZD-1390 (NSC803789), olaparib (NSC753686), talazoparib (NSC767125), rucaparib (NSC756644), sotorasib (NSC818433), MRTX-1133 (NSC836407), SN-38 (NSC673596), topotecan (NSC609699), epotoside (NSC141540), doxorubicin (NSC123127), gemcitabine (NSC613327), 5-fluorouracil (NSC19893), paclitaxel (NSC125973), vemurafenib (NSC761431), MSA-2 (NSC828583), SN-011 (NSC837082), adavosertib (NSC754352), prexasertib (NSC758257), carboplatin (NSC241240) and oxaliplatin (NSC266046), were obtained from the National Cancer Institute (NCI) Developmental Therapeutics Program Chemical Repository (21). The FDA-approved anticancer drug set is available from the Developmental Therapeutics Program at https://dtp.cancer.gov/organization/dscb/obtaining/. […] The stock solutions were prepared in dimethyl sulfoxide (DMSO, Sigma-Aldrich, St. Louis, MO, cat. D2650), except for the platinum compounds which were prepared in saline (Quality Biological, Gaithersburg, MD, cat. 114-055-101), at 800-fold the tested concentration and stored at -70 degrees C prior to their use. All drugs and investigational agents were tested over a range starting from a high concentration at or near the clinical Cmax and decreasing in half-log increments. If the clinical Cmax for an agent had not been determined, the highest concentration tested was 10 microM, except for SN-38, which was tested at a high concentration of 1 microM.
Cell Culture. All cells were maintained in an incubator at 37 degrees C and 5% CO2 with 95% humidity. The PDC lines were cultured according to standard operating procedures established by the NCI PDMR (https://pdmr.cancer.gov). Table 3 of the manuscript, lists the cell lines along with the number of the three cell types plated to form the mct-spheroids and media for tumor cell growth. After thawing, all PDC lines, except 997537-175-T-J1-PDC and 415267-285-R-J2-PDC, were cultured in Matrigel-coated flasks prepared with a working solution of 1X Ham's F-12 nutrient mix, without supplementation (Thermo Fisher Scientific, cat. 11765054), 100 U/mL penicillin-streptomycin (Thermo Fisher Scientific, cat. 15140122), and 2.5% Matrigel (Corning Inc., Corning, NY, cat. 354248) for the first three passages. The two PDC lines 997537-175-T-J1-PDC and 415267-285-R-J2-PDC were cultured on uncoated flasks. The 857933-349-R-J2-PDC line was cultured in 6C/Colon 1B media containing advanced DMEM/F-12 (Thermo Fisher Scientific, cat. 12634028), 10 mM HEPES (Thermo Fisher Scientific, cat. 15630080), 1X GlutaMAX supplement (Thermo Fisher Scientific, cat. 35050061), 0.1 mg/mL primocin (InvivoGen, San Diego, CA, cat. ant-pm-2), 10% defined fetal bovine serum, heat inactivated (HyClone Laboratories Inc., Logan, UT, cat. SH30070.03HI), 50% L-WRN conditioned media (ATCC, cat. CRL-3276), 1.25 mM N-Acetyl-L-cysteine (Sigma-Aldrich, cat. A9165), 10 mM nicotinamide (Sigma-Aldrich, cat. N0636), 1X B-27 supplement (Thermo Fisher Scientific, cat. 17504044), 1X N-2 supplement (Thermo Fisher Scientific, cat. […]
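Further: spheroids exposed to compounds for 7 days before readout.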
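Wherever viability, T/C is given: 100% = DMSO vehicle control viability.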

CC(C)n1c(=O)n(C)c2cnc3cc(F)c(-c4ccc(OCCCN5CCCCC5)nc4)cc3c21
viability, T/C (compound 0.0316 µM): 101% and 103% and 89.4%
viability, T/C (compound 0.1 µM): 103% and 104% and 95.9%
viability, T/C (compound 0.316 µM): 85.1% and 103% and 99.6%
viability, T/C (compound 1 µM): 110% and 121% and 129%
viability, T/C (compound 3.16 µM): 101% and 104% and 89.3%
IC50 (curve of compound): > 10000 nM

O=C(c1cc(Cc2n[nH]c(=O)c3ccccc23)ccc1F)N1CCN(C(=O)C2CC2)CC1
viability, T/C (compound 0.0316 µM): 106% and 90.8% and 97%
viability, T/C (compound 0.1 µM): 97.2% and 97.7% and 99.1%
viability, T/C (compound 0.316 µM): 84.8% and 95.7% and 101%
viability, T/C (compound 1 µM): 108% and 85.4% and 103%
viability, T/C (compound 3.16 µM): 105% and 92.7% and 98.1%
IC50 (curve of compound): > 10000 nM

COc1cccc2c1C(=O)c1c(O)c3c(c(O)c1C2=O)CC(O)(C(=O)CO)CC3OC1CC(N)C(O)C(C)O1 (stereo unspecified)
viability, T/C (compound 0.0316 µM): 103% and 95.2% and 99.9%
viability, T/C (compound 0.1 µM): 106% and 91% and 88.5%
viability, T/C (compound 0.316 µM): 77% and 85.2% (2×)
viability, T/C (compound 1 µM): 51% and 54.2% and 48.5%
viability, T/C (compound 3.16 µM): 29.6% and 40.6% and 40.8%
viability, T/C (compound 10 µM): 41.7% and 36.5% and 38.3%
IC50 (curve of compound): 903 nM and 1420 nM and 972 nM

CCc1c2c(nc3ccc(O)cc13)-c1cc3c(c(=O)n1C2)COC(=O)[C@]3(O)CC + Nc1ccc(C#CCN(C(=O)Cc2ncc(C(F)(F)F)cc2C(F)(F)F)c2ccc(F)cc2)nn1
IC50 (curve of first compound, second compound 0.0316 µM): 81 nM
IC50 (curve of first compound, second compound 0.1 µM): 62.1 nM
IC50 (curve of first compound, second compound 0.316 µM): 101 nM
IC50 (curve of first compound, second compound 1 µM): 110 nM
IC50 (curve of first compound, second compound 3.16 µM): 90.9 nM
IC50 (curve of first compound, second compound 10 µM): 94.1 nM
viability, T/C (second compound 0.0316 µM, first compound 0.00316 µM): 90.7%
viability, T/C (second compound 0.0316 µM, first compound 0.01 µM): 76.1%
viability, T/C (second compound 0.0316 µM, first compound 0.0316 µM): 51.9%
viability, T/C (second compound 0.0316 µM, first compound 0.1 µM): 51.2%
viability, T/C (second compound 0.0316 µM, first compound 0.316 µM): 42%
viability, T/C (second compound 0.0316 µM, first compound 1 µM): 26.2%
viability, T/C (second compound 0.1 µM, first compound 0.00316 µM): 95.9%
viability, T/C (second compound 0.1 µM, first compound 0.01 µM): 78.6%
viability, T/C (second compound 0.1 µM, first compound 0.0316 µM): 52.9%
viability, T/C (second compound 0.1 µM, first compound 0.1 µM): 45.3%
viability, T/C (second compound 0.1 µM, first compound 0.316 µM): 42.8%
viability, T/C (second compound 0.1 µM, first compound 1 µM): 30.2%
viability, T/C (second compound 0.316 µM, first compound 0.00316 µM): 102%
viability, T/C (second compound 0.316 µM, first compound 0.01 µM): 89.6%
viability, T/C (second compound 0.316 µM, first compound 0.0316 µM): 58%
viability, T/C (second compound 0.316 µM, first compound 0.1 µM): 52.9%
viability, T/C (second compound 0.316 µM, first compound 0.316 µM): 39.8%
viability, T/C (second compound 0.316 µM, first compound 1 µM): 25.6%
viability, T/C (second compound 1 µM, first compound 0.00316 µM): 100%
viability, T/C (second compound 1 µM, first compound 0.01 µM): 81.5%
viability, T/C (second compound 1 µM, first compound 0.0316 µM): 56.7%
viability, T/C (second compound 1 µM, first compound 0.1 µM): 55.4%
viability, T/C (second compound 1 µM, first compound 0.316 µM): 42.8%
viability, T/C (second compound 1 µM, first compound 1 µM): 28.2%
viability, T/C (second compound 3.16 µM, first compound 0.00316 µM): 89.7%
viability, T/C (second compound 3.16 µM, first compound 0.01 µM): 72.7%
viability, T/C (second compound 3.16 µM, first compound 0.0316 µM): 59.1%
viability, T/C (second compound 3.16 µM, first compound 0.1 µM): 48%
viability, T/C (second compound 3.16 µM, first compound 0.316 µM): 43.6%
viability, T/C (second compound 3.16 µM, first compound 1 µM): 24.3%
viability, T/C (second compound 10 µM, first compound 0.00316 µM): 75%
viability, T/C (second compound 10 µM, first compound 0.01 µM): 65.1%
viability, T/C (second compound 10 µM, first compound 0.0316 µM): 58.3%
viability, T/C (second compound 10 µM, first compound 0.1 µM): 53.3%
viability, T/C (second compound 10 µM, first compound 0.316 µM): 35.7%
viability, T/C (second compound 10 µM, first compound 1 µM): 24.5%
